Assay results reported in patent US20250221981A1, “MAT2A INHIBITOR AND/OR TSG101 INHIBITOR FOR USE IN ANTIVIRAL THERAPY” (CAMBRIDGE ENTERPRISE LIMITED, priority 2022, published 2025).

Columns and labels:
[1] = system: BKPyV; test: Fluorescence focus unit (FFU) assay of infectious BKPyV from treated RPTE/TERT1 cells; format: cell-based, BK polyomavirus; details: for reduction in infectious virus production: BKPyV MOI 1
Experimental: (B) Effect of PF-9366 on viral replication: Cells were infected with BKPyV (MOI 1) in media containing appropriate drug concentrations. At 1 hpi infectious media was removed, cells were washed and fresh media with appropriate drug concentrations was added. At 48 hpi cells were harvested and infectious BKPyV was measured by FFU assay. n=3.
(§1) Cells were treated with MAT2A inhibitors at 1 hr post infection and were harvested at 48 hr post infection at MOI 1. (A) Total infectious BKPyV synthesis expressed as fold change to DMSO control (FFU titre assay). (B) Total viral protein expression (LTAg and VP1) was analysed by western blot. Tubulin was used as loading control. All error bars represent SEM. Two sample paired T-test was used to determine significance (*p<0.05; **p<0.01; ***p<0.001, ****p<0.0001), all numerical data shown were obtained over 2 independent experiments.
(§2) RPTE/hTERT cells were treated with inhibitors at 1 hr post infection (PI), infected at MOI 1. (A) Viral growth curves using FFU titre assay in drug treated and untreated cells infected with BKPyV at MOI 1 for 48 hr PI, 72 hr PI and 96 hr PI. (B) Total viral protein expression (LTAg and VP1) from drug treatments and untreated control was analysed by western blot with samples harvested at 48 hr PI and 96 hr PI. Tubulin was used as loading control. All error bars represent SEM. All numerical data shown were obtained over 2 independent experiments.
The ability for PF-9366 to inhibit the production of infectious virus was then investigated. RPTE/TERT1 cells were once again treated with a concentration range of PF-9366 or DMSO as a control prior to infection, and as before, infected with BKPyV (MOI 1) then washed and media replaced at 1 hpi. At 48 hpi total virus was harvested from each condition and an FFU assay was conducted to determine BKPyV virus titre (FIG. 3B).
For BKPyV infections, RPTE/TERT1, RPTE/TERT1-Cas9 or RPTE/TERT1 MAT2A KO cells were infected with BKPyV at either a multiplicity of infection (MOI) of 5 for growth curves or an MOI of 3 or 1 for all other experiments, diluted in appropriate medium. At 1 hour post infection (hpi) medium was removed, cells were washed twice with phosphate-buffered saline (PBS), and fresh medium was added with or without inhibitors. At 24, 48, 72 or 96 hpi cells were either harvested for western blot, RT qPCR or virus titre by FFU assay, or fixed for immunofluorescence analysis.
FFU assays were used to determine the concentration of infectious BKPyV in experimental samples. RPTE/TERT1 cells were infected with sample dilutions, fixed at 48 hpi in 3% formaldehyde, and immunostained for VP1 expression as described in Evans et al. (Open Biol. 2015 August; 5 (8): 150041).
Example 1: PF-9366 (Sigma-Aldrich) and AG-270 (kindly supplied by Astra Zeneca) were diluted in 100% DMSO. Cells were drug treated at a range of concentrations in REBM supplemented with BulletKit (Lonza) for 3 hours prior to infection. Cells were infected with BK-Dunlop in media and appropriate drug dilution. At 1 hpi infectious media was removed, cells gently washed with PBS and media containing appropriate drug dilutions was added. At 48 hpi cells were either fixed in 3% formaldehyde for microscopy, or harvested by scraping up into fresh drug-free media.
TSG101 inhibitor Ilaprazole (Sigma-Aldrich) was diluted in 100% DMSO. Cells were treated at a range of inhibitor concentrations and combinations, in appropriate media for the cell type used, for either 3 hours prior to infection (HSV-1, Alphavirus and Flavivirus infections) or 1 hour post infection (BKPyV infection).

[2] = system: BKPyV; test: Western blot of BKPyV viral protein expression (LTAg, VP1) in RPTE/TERT1 cells; format: cell-based, BK polyomavirus
Experimental: (C)(i) Effect of PF-9366 on viral early and late gene and cellular MAT2A expression: Cells were infected with BKPyV (MOI 3) in media containing appropriate drug concentrations. At 1 hpi infectious media was removed, cells were washed and fresh media with appropriate drug concentrations was added. Cells were harvested at 48 hpi and a western blot performed. Membranes were blotted for viral late gene VP1, LTAg, cellular MAT2A/MAT1A, and tubulin as a loading control.
(iii) Viral gene expression is modulated in response to PF-9366: The density of BKPyV VP1 and LTAg expression were measured, normalized to tubulin loading control (LiCor Image Studio Software), n=3.
as §1, §2
It has previously been noted by Quinlan et al. (Nat Chem Biol. 2017 13 (7): 785-792) that treatment with PF-9366 can increase MAT2A expression as a compensatory mechanism within cells. To investigate this, cells were once again treated with a range of PF-9366 for 3 hours prior to infection (or DMSO treated). Cells were infected with BKPyV (MOI 3), washed at 1 hpi, and fresh drug treated media was added. At 48 hpi cells were harvested and protein expression was analysed by western blotting (FIG. 3C(i)). MAT2A expression was quantified from band intensities, normalised to the tubulin loading control and plotted (FIG. 3C(ii), n=3). A clear increase in the cellular expression of MAT2A was observed, up to an 8-fold increase at 10 μM PF-9366. Western blot analysis was also conducted on early viral gene (LTAg) and late viral gene (VP1) expression (FIG. 3C(iii), n=3).
Cell lysate preparation and western blots were performed as described in Ren et al. (J Gen Virol. 2012 February; 93 (Pt 2): 319-329). Primary antibodies used were ab53977 (VP1), PAb416 (LTAg), sc-166452 (MAT2A/1A), ab110226 (VP16), sc-53070 (ICP0), anti-Zika E Protein, and either anti-GAPDH or anti-tubulin as a loading control, followed by IRDye 680LT-, or IRDye 800CW-conjugated secondary antibodies. Imaging was performed using the LI-COR Odyssey Infrared Imaging system. Quantification was performed using LI-COR Image Studio Software.

[3] = 125 nM to 1 μM, dose dependent, MOI 1, 48 hr post infection

SMILES	inhibition of BKPyV replication (total infectious BKPyV, FFU titre) ([1]; 125 nM, 250 nM, 500 nM and 1 μM, added 1 hr post infection, MOI 1, 48 hr post infection)	potency against BKPyV replication ([1]; AG270 1 μM or AZ33 125 nM in conjunction with Ilaprazole (5 μM), compared with MAT2A inhibitor alone)	early viral protein (LTAg) levels (western blot) [2, 3]	late viral protein (VP1) levels (western blot) [2, 3]	reduction in infectious virus production ([1]; 2.5 μM (lowest concentration), 48 hpi)	reduction in viral titre for BKPyV ([1]; 2.5 μM, MOI 1, 48 hpi)	reduction in infectious virus production ([1]; 40 μM (maximum), 48 hpi)	VP1 expression (western blot) ([2]; across the concentration range of PF-9366, BKPyV MOI 3, 48 hpi)	expression of LTAg (western blot) ([2]; two highest concentrations of PF-9366, BKPyV MOI 3, 48 hpi)
COc1ccc(-c2c(Nc3ccccn3)[nH]c3c(C4=CCCCC4)c(-c4ccccc4)nn3c2=O)cc1 [AG-270]	significant dose dependent inhibition	increased potency	reduced	reduced	–	–	–	–	–
CN(C)CCc1nnc2cc(-c3ccccc3)c3cc(Cl)ccc3n12 [PF-9366]	–	–	–	–	60%	2-3 fold	~95%	dose-dependent reduction	Reduced expression
